Reference: US20250049815A1, “25-HYDROXYCHOLESTEROL (25HC), CRYAB AGGREGATION INHIBITOR TO AMELIORIATE VASCULAR STIFFNESS” (Buck Institute for Research on Aging, priority 2021, published 2025)
Entries after “also recorded” stand apart in the source; their conditions may differ.

Experiments:
senescent cells = assay: Evaluation of senolytic effects in cell culture; assay type: cell-based
Source text: Genetic knockdown of this gene kills senescent cells.
There are some commercially available analogs of 25HC such as oxysterols (Griffiths et al. (2019) Biochem Soc Trans., 47: 517-526).

[1] = tested on: senescent human fetal lung fibroblast (IMR-90); assay: Cell viability assay (Cell Counting Kit-8) on NS and SEN IMR-90 cells; assay type: cell-based; conditions: treatment started immediately after removing DMSO/250 nM Doxo, 72 hrs
Experimental: Panel A) Timeline for DMSO/250 nM Doxo treatment and early-time point timeline for 24(S)-HC and 27HC treatment on NS and SEN cells. 24(S)HC and 27HC treatment were started immediately after removing DMSO/Doxo. Panel B) and C) Cell viability assay were performed on NS and SEN cells treated with different concentrations of 24(S)HC and 27HC, respectively. 24(S)HC and 27HC treatment were done for 72 hrs. The cell viability was analyzed by Cell Counting Kit-8 according to the manufactures' protocol using Spectra Max 190 (Molecular Devices). The value was normalized to that of DMSO. (Mean +/−SE, n=3, *p<0.05, **p<0.01 and ***p<0.001 by student's t-test).

senescent FAPs = assay: Cell viability assay on NS and SEN FAPs treated with 25HC; assay type: cell-based, mouse; conditions: 25HC started immediately after removing DMSO/Doxo (early time point), total 5 days
Experimental: Panel A) Timeline for DMSO/Doxo treatment and early-time point timeline for 25HC treatment on NS and SEN cells. 25HC treatment was started immediately after removing DMSO/Doxo. Panel B) Cell viability assay was performed on NS and SEN cells treated with different concentrations of 25HC. 25HC treatment was done for total 5 days. The value was normalized to that of 0 uM. The average value of 0 M is expressed as 100% (Mean +/−SE, n=3, **p<0.01 and ***p<0.001 by student's t-test vs NS).

senescent mDFs = assay: Cell viability assay on NS and SEN mDFs treated with 25HC; assay type: cell-based, mouse; conditions: 72 hrs
Experimental: (§1) Panel A) Timeline for DMSO/Doxo treatment and early-time point timeline for 25HC treatment on NS and SEN cells. 25HC treatment was started immediately after removing DMSO/Doxo. Panel B) Cell viability assay was performed on NS and SEN cells treated with different concentrations of 25HC. 25HC treatment was done for 72 hrs. (Mean +/−SD, n=3, *p<0.05, **p<0.01 vs 0 uM by student's t-test).
as §1, with “late-time” for “early-time”, “7 days” for “immediately”, “n=6, **p<0.01, ***p<0.001, ****p<0.0001,” for “n=3, *p<0.05, **p<0.01”

[2] = tested on: aged female C57BL/6J p16-3MR mice; assay: Pulsed wave velocity (PWV) of the aorta by doppler imaging in aged mice; assay type: in vivo, mouse; conditions: 27 months at baseline, 25HC 50 mpk IP or GCV, 1 and 2 months post treatment, vs untreated controls
Experimental: At baseline, animals were evaluated for blood flow in the aorta using doppler imaging. This determines a measure of vascular stiffness with vessels being more stiff having faster flow.

CRYAB = conditions: Makley et al. (2015) Science, 350: 674-7; cited from earlier work
[3] = tested on: mouse dermal fibroblasts (mDFs); assay: qPCR of senescence marker and CRYAB mRNA in Doxo treated mDFs; assay type: cell-based; conditions: 250 nM Doxo for 24 hours; day 1, 5, 14; normalized to β-actin, vs DMSO
Experimental: (§2) As shown, mDFs undergo senescence upon 250 nM of Doxo treatment for 24 hours (Day 0). Real-time quantitative PCR (qPCR) was performed on RNA samples isolated from DMSO treated NS (Non-Senescent) mDF cells or Doxo treated SEN (Senescent) mDF cells at day 1, 5, and 14 after Doxo treatment. The amount of mRNA was normalized to the level of β-actin (see, e.g., Demaria et al. (2017) Cancer Discovery, 2: 165-176; and references cited therein). Relative levels of p16INK4a mRNA for DMSO and Doxo treated mDFs was measured. The average value of DMSO is expressed as 1. (Mean +/−SE, n=4, **p<0.01, ****p<0.0001 by Dunnett's multiple comparisons test vs DMSO).
as §2, with “Real-time” for “As shown, mDFs undergo senescence upon 250 nM of Doxo treatment for 24 hours (Day 0). Real-time”, “NS” for “NS (Non-Senescent)”, “SEN” for “SEN (Senescent)”, “CRYAB” for “p16INK4a”, “*p<0.05, ***p<0.001” for “**p<0.01, ****p<0.0001”

[4] = tested on: mouse primary fibro adipogenic progenitors (FAPs); assay: qPCR of senescence marker and CRYAB mRNA in Doxo treated FAPs; assay type: cell-based; conditions: normalized to β-actin, vs DMSO
Experimental: As shown, FAPs undergo senescence upon 250 nM of Doxo treatment for 24 hours (Day 0). The mRNA was extracted from DMSO treated NS or Doxo treated SEN FAPs at indicated time points and quantified by qPCR. The amount of mRNA was normalized to the level of β-actin. The graphs show the relative levels of p16INK4a mRNA for DMSO and Doxo treated samples. The average value of DMSO is expressed as 1 (Mean +/−SE, n=3, *p<0.05 by Dunnett's multiple comparisons test vs DMSO).
The cells were treated with 250 nM doxorubicin and incubated for 24 hrs (Day 0). The mRNA was extracted from DMSO treated NS or Doxo treated SEN FAPs at the indicated time points and quantified by qPCR. The amount of mRNA was normalized to the level of β-actin mRNA. The average value of DMSO is expressed as 1 (Mean +/−SE, n=3, **p<0.01 and ***p<0.001 by Dunnett's multiple comparisons test vs DMSO).

Compound	senolytic effect (senescent cells)	other results
C[C@@H](CCCC(C)(O)c1ccccc1)C1CCC2C3CC=C4C[C@H](O)CC[C@@]4(C)C3CC[C@]21C (relative stereo) [rel-(3R,10S,13S)-17-[(2S)-6-hydroxy-6-phenylheptan-2-yl]-10,13-dimethyl-2,3,4,7,8,9,10,11,12,13,14,15,16,17-tetradecahydro-1H-cyclopenta[a]phenanthren-3-ol]	novel senolytics	
C[C@H](CCCC(C)(C)O)[C@H]1CC[C@H]2[C@@H]3[C@H](O)C=C4C[C@@H](O)CC[C@]4(C)[C@H]3CC[C@]12C [7α,25-Dihydroxycholesterol]	novel senolytics	
CC(C)CCC[C@@H](C)[C@H]1CC[C@H]2[C@@H]3[C@H](O)C=C4C[C@@H](O)CC[C@]4(C)[C@H]3CC[C@]12C [7αHC, 7α-Hydroxycholesterol]	novel senolytics	
CC(C)CCC[C@@H](C)[C@H]1CC[C@H]2[C@@H]3[C@@H](O)C=C4C[C@@H](O)CC[C@]4(C)[C@H]3CC[C@]12C [7βHC, 7β-Hydroxycholesterol]	novel senolytics	
CC(C)CC[C@@H](O)[C@@H](C)[C@H]1CC[C@H]2[C@@H]3CC=C4C[C@@H](O)CC[C@]4(C)[C@H]3CC[C@]12C [22(R)HC, 22(R)-Hydroxycholesterol]	novel senolytics	
CC(C)[C@@H](O)CC[C@@H](C)[C@H]1CC[C@H]2[C@@H]3CC=C4C[C@@H](O)CC[C@]4(C)[C@H]3CC[C@]12C [24(S)HC, 24(S)-Hydroxycholesterol]	novel senolytics	cell viability of senescent vs non-senescent IMR-90 cells [1]: specifically kill senescent human fetal lung fibroblast; also recorded: specifically kill senescent IMR-90 cells
C[C@H](CCCC(C)(C)O)[C@H]1CC[C@H]2[C@@H]3CC=C4C[C@@H](O)CC[C@]4(C)[C@H]3CC[C@]12C [25HC, 25-hydroxycholesterol]	novel senolytic agent	cell viability of senescent vs non-senescent FAPs (senescent FAPs): specifically kills senescent FAPs; cell viability of senescent vs non-senescent mDFs, late time point (senescent mDFs; 25HC started 7 days after removing DMSO/Doxo): specifically kills senescent mDFs; cell viability of senescent vs non-senescent mDFs, early time point (senescent mDFs; 25HC started immediately after removing DMSO/Doxo): specifically kills senescent mDFs; pulsed wave velocity (PWV) of the aorta [2]: reduces PWV; inhibition of CRYAB (CRYAB): effective inhibitor of CRYAB
CC(=O)CCC[C@@H](C)[C@H]1CC[C@H]2[C@@H]3CC=C4C[C@@H](O)CC[C@]4(C)[C@H]3CC[C@]12C [27-Nor-25-ketocholesterol]	novel senolytics	
C[C@@H](CO)CCC[C@@H](C)[C@H]1CC[C@H]2[C@@H]3CC=C4C[C@@H](O)CC[C@]4(C)[C@H]3CC[C@]12C [27HC, 27-Hydroxycholesterol]	novel senolytics	cell viability of senescent vs non-senescent IMR-90 cells [1]: specifically kill senescent human fetal lung fibroblast; also recorded: specifically kill senescent IMR-90 cells
CC(CCCN(C)C)C1CCC2C3CC=C4C[C@@H](O)CC[C@]4(C)C3CC[C@]12C (stereo partly drawn) [(3S,10R,13R)-17-(5-(dimethylamino)pentan-2-yl)-10,13-dimethyl-2,3,4,7,8,9,10,11,12,13,14,15,16,17-tetradecahydro-1H-cyclopenta[a]phenanthren-3-ol]	novel senolytics	
C[C@H](CCC(=O)O)[C@H]1CCC2[C@@H]3CC=C4C[C@H](O)CC[C@]4(C)C3CC[C@@]21C (stereo partly drawn) [(3alpha,9xi,14xi)-3-hydroxychol-5-en-24-oic acid]	novel senolytics	
C=C1CC[C@@H](O)CC1=C/C=C1\CCC[C@]2(C)[C@@H]([C@H](C)CCCC(C)(C)O)CC[C@@H]12 [Calcifediol 25-Hydroxyvitamin D3, reference compound]	novel senolytics	
COc1cccc2c1C(=O)c1c(O)c3c(c(O)c1C2=O)C[C@@](O)(C(=O)CO)C[C@@H]3O[C@H]1C[C@H](N)[C@H](O)[C@H](C)O1 [Doxo, doxorubicin]		relative level of CRYAB mRNA [3]: upregulated CRYAB; relative level of p16INK4a mRNA [3]: induces senescence marker, p16INK4a; senescence induction (relative level of p16INK4a mRNA) ([4]; 250 nM Doxo for 24 hours): induced senescence; expression of CRYAB mRNA ([4]; 250 nM doxorubicin for 24 hrs): significantly increased
Nc1nc(O)c2ncn(COC(CO)CO)c2n1 [GCV, ganciclovir, reference compound]		pulsed wave velocity (PWV) of the aorta [2]: reduces PWV
